Results taken from patent US9073935B2, “Substituted benzylspiroindolin-2-one analogs as positive allosteric modulators of the muscarinic acetylcholine receptor M1” (VANDERBILT UNIVERSITY, priority 2011, dated 2015).
Where two headings read alike, the source gives them in different places. Each block holds one compound with its values, some of them ahead of it.

Biological target: T1, mAChR M1 (UniProt P11229)
T1 sequence (P11229 1-460): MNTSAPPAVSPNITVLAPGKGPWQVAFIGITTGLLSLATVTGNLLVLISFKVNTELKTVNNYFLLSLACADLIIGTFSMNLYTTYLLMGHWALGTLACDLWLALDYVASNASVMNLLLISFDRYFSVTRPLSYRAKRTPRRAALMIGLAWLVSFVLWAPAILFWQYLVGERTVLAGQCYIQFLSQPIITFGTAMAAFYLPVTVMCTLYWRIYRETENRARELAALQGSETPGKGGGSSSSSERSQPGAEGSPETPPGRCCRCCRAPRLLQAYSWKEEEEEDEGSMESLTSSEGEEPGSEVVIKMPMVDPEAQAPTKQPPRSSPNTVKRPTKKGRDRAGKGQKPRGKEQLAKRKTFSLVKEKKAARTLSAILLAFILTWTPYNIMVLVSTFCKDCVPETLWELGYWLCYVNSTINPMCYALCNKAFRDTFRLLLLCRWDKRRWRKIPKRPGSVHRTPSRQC
Test: mAChR M1 cell-based functional assay (calcium mobilization, potentiation of EC20 acetylcholine response)
Conditions: for EC50: CHO-K1 cells expressing mAChR M1, increase in EC20 acetylcholine response, >10 μM estimated where no plateau in the curve
Procedure: Chinese hamster ovary (CHO-K1) cells stably expressing rat (r)M1 were purchased from the American Type Culture Collection and cultured according to their indicated protocol. […] To make stable rM2, hM2, rM3, hM4, and rM4 cell lines for use in calcium mobilization assays, these cells also were stably transfected with a chimeric G-protein (Gqi5) (provided by B. R. Conklin, University of California, San Francisco) using Lipofectamine 2000. rM1, hM1, rM3, hM3, rM5, and hM5 cells were grown in Ham's F-12 medium containing 10% heat-inactivated fetal bovine serum (FBS), 20 mM HEPES, and 50 μg/mL G418 sulfate. rM2-Gqi5, hM2-Gqi5, and hM4-Gqi5 cells were grown in the same medium also containing 500 μg/mL Hygromycin B. Stable rM4-Gqi5 cells were grown in DMEM containing 10% heat-inactivated FBS, 20 mM HEPES, 400 μg/mL G418 sulfate, and 500 μg/mL Hygromycin B.
For high throughput measurement of agonist-evoked increases in intracellular calcium, CHO-K1 cells stably expressing muscarinic receptors were plated in growth medium lacking G418 and hygromycin at 15,000 cells/20 μL/well in Greiner 384-well black-walled, tissue culture (TC)-treated, clear-bottom plates (VWR). Cells were incubated overnight at 37° C. and 5% CO2. […] Compound master plates were formatted in an 11 point CRC format (1:3 dilutions) in 100% DMSO with a starting concentration of 10 mM using the BRAVO liquid handler (Agilent). Test compound CRCs were then transferred to daughter plates ([…]) using the Echo acoustic plate reformatter (Labcyte, Sunnyvale, Calif.) and then diluted into assay buffer (40 μL) to a 2× stock using a Thermo Fisher Combi (Thermo Fisher Scientific, Waltham, Mass.).
Calcium flux was measured using the Functional Drug Screening System (FDSS) 6000 (Hamamatsu Corporation, Tokyo, Japan) as an increase in the fluorescent static ratio. Compounds were applied to cells (20 μL, 2×) using the automated system of the FDSS 6000 at 4 s into the 300 s protocol and the data were collected at 1 Hz. […] Agonist activity was analyzed as a concentration-dependent increase in calcium mobilization upon compound addition. Positive allosteric modulator activity was analyzed as a concentration-dependent increase in the EC20 acetylcholine response. Antagonist activity was analyzed as a concentration-dependent decrease in the EC80 acetylcholine response. Concentration-response curves were generated using a four-parameter logistical equation in XLfit curve fitting software (IDBS, Bridgewater, N.J.) for Excel (Microsoft, Redmond, Wash.) or Prism (GraphPad Software, Inc., San Diego, Calif.).
The calcium mobilization assay was also used to determine “efficacy”. In the context of the assays carried out for the data in Table II, “efficacy” (% ACh at 30 μM) is defined as the maximal response in the calcium flux as determined by the sigmoidal curve fit of the concentration response curve, or in the absence of an acceptable curve fit, the response recorded at 30 μM test compound, stated as a percentage of the response elicited by a concentration of Ach that induces approximately 80% of a maximal (i.e. saturating) ACh response.
Substituted benzylspiroindolin-2-one analogs were synthesized as described above. Activity (EC50 and Emax) was determined in the mAChR M1 cell-based functional assay as described above and the data are shown in Table III. The compound number corresponds to the compound numbers used in Tables I and II.

Compound: Cn1cc(-c2ccc(CN3C(=O)C4(CCN(CC(F)F)C4)c4ccccc43)c(F)c2)cn1 (stereo not drawn) [Compound B26, 1′-(2,2-difluoroethyl)-1-(2-fluoro-4-(1-methyl-1H-pyrazol-4-yl)benzyl)spiro[indoline-3,3′-pyrrolidin]-2-one]
- Emax: 53%
- EC50: 3.4 µM

Compound: Cn1cc(-c2ccc(CN3C(=O)C4(CCN(C5CCCSC5)CC4)c4ccccc43)c(F)c2)cn1 (stereo not drawn) [Compound B29]
- Emax (% ACh maximum at 30 μM): 42%
- EC50: 3.7 µM

Compound: Cn1cc(-c2ccc(CN3C(=O)C4(CCN(C5CCNC5)CC4)c4ccccc43)c(F)c2)cn1 (stereo not drawn) [Compound B33]
- Emax (% ACh maximum at 30 μM): 52%
- EC50: 3.9 µM

Compound: CN1CCC2(CC1)C(=O)N(Cc1ccc(-c3cnn(C)c3)cc1F)c1ccccc12 [Compound B36]
- Emax (% ACh maximum at 30 μM): 48%
- EC50: 4 µM

Compound: Cn1cc(-c2ccc(CN3C(=O)C4(CCN(C5CCCOC5)CC4)c4ccccc43)c(F)c2)cn1 (stereo not drawn) [Compound B38]
- Emax (% ACh maximum at 30 μM): 50%
- EC50: 4.7 µM

Compound: CN1CCC(N2CCC3(CC2)C(=O)N(Cc2ccc(-c4cnn(C)c4)cc2F)c2ccccc23)C1 (stereo not drawn) [Compound B39]
- Emax (% ACh maximum at 30 μM): 55%
- EC50: 4.7 µM

Compound: Cn1cc(-c2ccc(CN3C(=O)C4(CCN(C5CCSCC5)CC4)c4ccccc43)c(F)c2)cn1 [Compound B40]
- Emax (% ACh maximum at 30 μM): 38%
- EC50: 4.7 µM

Compound: Cn1cc(-c2ccc(CN3C(=O)C4(CCN(C5CCSC5)CC4)c4ccccc43)c(F)c2)cn1 (stereo not drawn) [Compound B42]
- Emax (% ACh maximum at 30 μM): 51%
- EC50: 4.9 µM

Compound: Cn1cc(-c2ccc(CN3C(=O)C4(CCN(C5CCCNC5)CC4)c4ccccc43)c(F)c2)cn1 (stereo not drawn) [Compound B43]
- Emax (% ACh maximum at 30 μM): 48%
- EC50: 5 µM

Compound: Cn1cc(-c2ccc(CN3C(=O)C4(CCN(C5CCCC5)CC4)c4ccccc43)c(F)c2)cn1 [Compound B46]
- Emax (% ACh maximum at 30 μM): 34%
- EC50: 5.5 µM

Compound: CN1CCC(N2CCC3(CC2)C(=O)N(Cc2ccc(-c4cnn(C)c4)cc2F)c2ccccc23)CC1 [Compound B48]
- Emax (% ACh maximum at 30 μM): 51%
- EC50: 5.9 µM

Compound: CC(C)CN1CCC2(C1)C(=O)N(Cc1ccc(-c3cnn(C)c3)cc1F)c1ccccc12 (stereo not drawn) [Compound B49]
- Emax (% ACh maximum at 30 μM): 69%
- EC50: 6 µM

Compound: CN1CCCC(N2CCC3(CC2)C(=O)N(Cc2ccc(-c4cnn(C)c4)cc2F)c2ccccc23)C1 (stereo not drawn) [Compound B53]
- Emax (% ACh maximum at 30 μM): 57%
- EC50: 6.7 µM

More lines, now with the values ahead:

- Emax (% ACh maximum at 30 μM): 63%
- EC50: 3.5 µM
Compound: CN1CCC(N2CCC3(C2)C(=O)N(Cc2ccc(-c4cnn(C)c4)cc2F)c2ccccc23)CC1 (stereo not drawn) [Compound B27]

- Emax (% ACh maximum at 30 μM): 57%
- EC50: 3.7 µM
Compound: Cn1cc(-c2ccc(CN3C(=O)C4(CCN(C5COC5)C4)c4ccccc43)c(F)c2)cn1 (stereo not drawn) [Compound B28]

- Emax (% ACh maximum at 30 μM): 51%
- EC50: 3.7 µM
Compound: Cc1nn(C)cc1-c1ccc(CN2C(=O)C3(CCN(C4CCCC4)C3)c3ccccc32)c(F)c1 (stereo not drawn) [Compound B30]

- Emax (% ACh maximum at 30 μM): 41%
- EC50: 3.8 µM
Compound: CCCn1cc(-c2ccc(CN3C(=O)C4(CCN(C5CCCC5)C4)c4ccccc43)c(F)c2)cn1 (stereo not drawn) [Compound B32]

- Emax (% ACh maximum at 30 μM): 32%
- EC50: 4.4 µM
Compound: CC(C)N1CCC2(C1)C(=O)N(Cc1ccc(-c3cnn(C)c3)cc1F)c1ccccc12 (stereo not drawn) [Compound B37]

- Emax (% ACh maximum at 30 μM): 56%
- EC50: 4.9 µM
Compound: Cn1cc(-c2ccc(CN3C(=O)C4(CCN(C(=O)C5CC5)C4)c4ccccc43)c(F)c2)cn1 (stereo not drawn) [Compound B41]

- Emax (% ACh maximum at 30 μM): 49%
- EC50: 5 µM
Compound: CC(C)N1CCC(N2CCC3(C2)C(=O)N(Cc2ccc(-c4cnn(C)c4)cc2F)c2ccccc23)CC1 (stereo not drawn) [Compound B44]

- Emax (% ACh maximum at 30 μM): 58%
- EC50: 6 µM
Compound: Cn1cc(-c2ccc(CN3C(=O)C4(CCN(C5CNC5)C4)c4ccccc43)c(F)c2)cn1 (stereo not drawn) [Compound B50]

- Emax (% ACh maximum at 30 μM): 50%
- EC50: 6.2 µM
Compound: Cn1cc(-c2ccc(CN3C(=O)C4(CCN(C(=O)C5CCC5)C4)c4ccccc43)c(F)c2)cn1 (stereo not drawn) [Compound B51]

- Emax (% ACh maximum at 30 μM): 46%
- EC50: 6.7 µM
Compound: CC1CCC(N2CCC3(C2)C(=O)N(Cc2ccc(-c4cnn(C)c4)cc2F)c2ccccc23)CC1 (stereo not drawn) [Compound B52]

- Emax (% ACh maximum at 30 μM): 51%
- EC50: 7 µM
Compound: CC1CCCC1N1CCC2(C1)C(=O)N(Cc1ccc(-c3cnn(C)c3)cc1F)c1ccccc12 (stereo not drawn) [Compound B54]
